Measurements as given in publication PMC2360155, “Novel retinoic acid metabolism blocking agents have potent inhibitory activities on human breast cancer cells and tumour growth” (British Journal of Cancer, 2007).

How the values were obtained:
[1] = tested on: T47D cells; test: Cell cycle analysis by flow cytometry (PI), T47D; assay type: cell-based, human; conditions: 5 μM, 6 days (4-HPR 4 days)
Experimental: MCF-7 and T47D cells were plated in T-25 flasks and allowed to adhere for about 18 h. The cells were then synchronised by growing them in low-serum OPTI-MEM I medium for 2 days. […] After 6-day treatment, the cells were trypsinised, washed twice with PBS, centrifuged at 2500 r.p.m. to obtain a cell pellet. The cells (about 1–2 × 10^6) were fixed with 3 ml of 70% ethanol (by adding drop-wise and taking care that the cells are not clumped together). Cells were kept at −20°C until further analysis (at least overnight). Next, cells (∼1–2 × 10^6) were stained with 1 ml of propidium iodide (PI) (50 μg ml^−1)/RNase (100 μg ml^−1) solution and after about half an hour the fluorescence of stained nuclei (15 000 events) was analysed by flow cytometry (Becton Dickinson FACScan Instrument and quantification by Modfit LT version 3.1 software) with excitation wavelength of 488 nm. The percentage of G1, S, G2/M and sub-G1 (apoptotic cells) in the population of treated and untreated cells were determined.

[2] = tested on: T47D cells; parameters: method as in Patel et al. (2004); conditions: inhibition of cell proliferation by 50%; ref Patel et al. (2004); read-out: Cellular IC50, T47D; cited from earlier work
[3] = biological target: T1, RARγ (Mus musculus, UniProt P18911); test: Retinoid receptor competition binding assay, RARγ; conditions: competition with 1.0 nM [3H]-all-trans-RA
T1 construct: expressed in transfected cells; host or cells: CV-1 cells
T1 sequence (P18911 1-458): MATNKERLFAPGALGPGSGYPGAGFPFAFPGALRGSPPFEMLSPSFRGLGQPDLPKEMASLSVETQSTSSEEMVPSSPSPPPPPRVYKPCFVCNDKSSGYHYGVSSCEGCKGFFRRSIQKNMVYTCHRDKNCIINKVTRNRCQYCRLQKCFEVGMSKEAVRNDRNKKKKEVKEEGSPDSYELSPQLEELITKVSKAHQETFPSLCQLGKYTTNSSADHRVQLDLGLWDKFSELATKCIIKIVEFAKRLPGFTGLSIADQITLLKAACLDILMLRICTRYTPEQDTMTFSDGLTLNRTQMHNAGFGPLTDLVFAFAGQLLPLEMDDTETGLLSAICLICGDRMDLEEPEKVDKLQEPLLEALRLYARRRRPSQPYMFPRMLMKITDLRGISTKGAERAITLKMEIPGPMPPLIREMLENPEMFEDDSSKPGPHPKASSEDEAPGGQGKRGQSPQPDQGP

[4] = biological target: T2, RXRα (Homo sapiens, UniProt P19793); test: Retinoid receptor competition binding assay, RXRα; conditions: competition with 1.0 nM [3H]-9-cis-RA
T2 construct: The full-length cDNA clones for RARα, RARβ, RARγ and RXRα were cloned into the prokaryotic expression vector pET29; S-Tag; made in house; host or cells: prokaryotic host (pET29 vector)
T2 sequence (P19793 1-462): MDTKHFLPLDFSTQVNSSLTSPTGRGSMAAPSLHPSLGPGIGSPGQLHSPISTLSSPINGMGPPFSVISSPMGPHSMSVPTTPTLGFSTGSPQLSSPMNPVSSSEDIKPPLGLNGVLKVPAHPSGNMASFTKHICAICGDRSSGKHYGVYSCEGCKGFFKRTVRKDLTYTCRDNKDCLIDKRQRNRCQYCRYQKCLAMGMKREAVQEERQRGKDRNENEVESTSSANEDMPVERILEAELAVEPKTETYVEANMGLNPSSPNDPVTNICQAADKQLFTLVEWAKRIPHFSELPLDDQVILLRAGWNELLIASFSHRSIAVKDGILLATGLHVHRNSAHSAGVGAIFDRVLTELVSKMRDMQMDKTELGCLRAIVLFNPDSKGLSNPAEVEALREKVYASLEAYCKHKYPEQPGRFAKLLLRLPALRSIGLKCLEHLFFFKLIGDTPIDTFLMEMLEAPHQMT

[5] = biological target: T3, RARα (Mus musculus, UniProt P11416); test: Transactivation assay (RARE-CAT reporter, CV-1 cells), RARα; assay type: cell-based; conditions: 50% of maximal activity obtained with 10^−6 M all-trans-RA
T3 sequence (P11416 1-462): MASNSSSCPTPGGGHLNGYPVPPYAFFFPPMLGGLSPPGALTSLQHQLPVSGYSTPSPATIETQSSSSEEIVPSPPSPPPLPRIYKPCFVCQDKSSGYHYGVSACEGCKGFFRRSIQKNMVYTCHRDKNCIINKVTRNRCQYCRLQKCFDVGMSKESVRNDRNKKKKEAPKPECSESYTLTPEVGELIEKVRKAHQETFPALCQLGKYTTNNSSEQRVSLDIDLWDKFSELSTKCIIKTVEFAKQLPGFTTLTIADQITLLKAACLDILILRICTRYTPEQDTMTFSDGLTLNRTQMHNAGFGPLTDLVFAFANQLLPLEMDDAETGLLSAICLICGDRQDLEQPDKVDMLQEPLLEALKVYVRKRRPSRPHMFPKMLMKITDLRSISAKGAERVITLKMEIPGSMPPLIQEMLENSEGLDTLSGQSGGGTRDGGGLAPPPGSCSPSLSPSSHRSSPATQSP
Experimental: Briefly, CV-1 cells were cotransfected with 4 μg RAR subtype (RARα, RARβ or RARγ) expression vector construct in pSG5, 4 μg RARE-CAT reporter DNA and 1 μg pCMV-β-gal DNA. Twenty-four hours following transfection, the cells were treated with various concentrations of each RAMBA ranging from 10^−11–10^−5 M along with an ethanol carrier control. Additional cells were treated with 10^−6 M all-trans-RA for normalisation. Twenty-four hours later, the cells were harvested and CAT and β-gal activities were assayed.

[6] = biological target: T3, RARα; test: Retinoid receptor competition binding assay, RARα; parameters: The full-length cDNA clones for RARα, RARβ, RARγ and RXRα were cloned into the prokaryotic expression vector pET29; S-Tag; made in house; host or cells: prokaryotic host (pET29 vector); conditions: competition with 1.0 nM [3H]-all-trans-RA

| Compound | G2/M (%) [1] [%] | Go/G1 (%) [1] [%] | S (%) [1] [%] | Sub-G1 (%) [1] [%] | IC50 [2] [µM] | IC50 [3] [µM] | IC50 [4] [µM] | EC50 [5] [µM] | IC50 [6] [µM] |
| --- | --- | --- | --- | --- | --- | --- | --- | --- | --- |
| CC1=C(/C=C/C(C)=C/C=C/C(C)=C/C(=O)O)C(C)(C)CCC1 [ATRA, all-trans-retinoic acid, reference compound] | 13.03±4.06 | 83.89±0.96 | 3.1±1.3 | 17.12±4.06 | 0.008 |  |  |  |  |
| CC1=C(/C=C/C(C)=C/C=C/C(C)=C/C(=O)O)C(C)(C)CCC1n1ccnc1 (stereo not shown) [VN/14-1] | 20.85±3.75 | 77.98±2.56 | 1.18±1.0 | 22.38±2.95 | 0.003 | 0.016 | > 0.5 | 0.3 | 0.016 |
| CC1=C(/C=C/C(C)=C/C=C/C(C)=C/C(=O)Nc2ccc(O)cc2)C(C)(C)CCC1n1ccnc1 (stereo not shown) [VN/66-1] | 19.57±0.21 | 80.44±0.20 | 0 | 26.41±1.18 | 0.57 | > 1 | > 0.5 | > 10 | > 1 |
| CC1=C(/C=C/C(C)=C/C=C/C(C)=C\C(=O)Nc2ccc(O)cc2)C(C)(C)CCC1n1ccnc1 (stereo not shown) [VN/69-1] | 21.01±0.99 | 78.99±0.99 | 0 | 24.34±1.24 |  | > 1 | > 0.5 | > 10 | > 1 |
